For 44 sequences, target mRNA inhibition results are on record in the OligoGym collection.

Where “and” joins values, the source holds several entries; their conditions need not be identical. Identical values can stand only once. After the bases stand the sugars from the 5' end (letter, count) and the backbone: PS all phosphorothioate, else s phosphorothioate and o phosphodiester by linkage. Methylation of C is not given here. e = 2'-O-(2-methoxyethyl) (MOE); k = constrained ethyl (cEt); d = 2'-deoxy (DNA)

The series addresses IRF4. The settings on record: ASO.

With CAATGAACGGAAGTTT (sugars k3 d10 k3, PS), the target mRNA inhibition (SK-MEL-28, 4 µM) came out at 33%. On to CCATATACATTGAGGC (sugars k3 d10 k3, PS), for which, where the note is “SK-MEL-28, 4 µM”, the target mRNA inhibition worked out at 44%. As for CCTGAATTTACAGCAT (sugars k3 d10 k3, PS), the target mRNA inhibition (SK-MEL-28, 4 µM) was 40%. “CAGTGACTTGCATCCA (sugars kkddddddddddkeke, PS)”: the target mRNA inhibition (MM.1R, 1 µM) amounted to 33%. In the case of AACAGGCTATCAGGAT (sugars k3 d10 k3, PS), for the setting “SK-MEL-28, 4 µM”, the target mRNA inhibition worked out at 17%. For TTAGGCACATCAATGT (sugars k3 d10 k3, PS), where the note is “MM.1R, 1 µM”, the target mRNA inhibition was 12% and 17%. On to “TGTAGTATGAGAAACG (sugars kkdddddddddkdkdk, PS)”, for which the target mRNA inhibition (MM.1R, 1 µM) is -6%. GCTGCTCATTTCACTG (sugars k3 d10 k3, PS): the target mRNA inhibition (SK-MEL-28, 4 µM) was 41%.

Consider “TTATATACTGGTTGGT (sugars k2 d9 e3 k2, PS)”, for which the target mRNA inhibition (MM.1R, 1 µM) is 40%.

For GTTCCTGTCACCTGGC (sugars k4 d8 k4, PS), for the setting “SK-MEL-28, 4 µM”, the target mRNA inhibition was 12%. ATCATCCGAAAAGACT (sugars k3 d10 k3, PS): the target mRNA inhibition (MM.1R, 1 µM) came to 4%. Regarding TCCTATTATAGAGCAT (sugars k3 d10 k3, PS), the target mRNA inhibition (MM.1R, 1 µM) turned out to be 3%. For the sequence CGCAAGGCTCGGAGCG (sugars k3 d10 k3, PS), the target mRNA inhibition (SK-MEL-28, 4 µM) stood at 10%. AGCAAAACGCAGAGCC (sugars k3 d10 k3, PS): the target mRNA inhibition (SK-MEL-28, 4 µM) was found to be 61%. Regarding GCAGAGCAATTTACAT (sugars k3 d10 k3, PS), the target mRNA inhibition (SK-MEL-28, 4 µM) came out at 66%. For TGTCGATGCCTTCTCG (sugars k3 d10 k3, PS), where the note is “SK-MEL-28, 4 µM”, the target mRNA inhibition amounted to 28%. With CATTTCATTTAATGTC (sugars k4 d8 k4, PS), the target mRNA inhibition (SK-MEL-28, 4 µM) is 44%. For the sequence “GTAGTATGAGAAACGG (sugars kddddddddddkekek, PS)”, the target mRNA inhibition (MM.1R, 1 µM) stood at 46%. Same read-out and setting: with “CTCTATAGTGTTCCAG (sugars kkkdddddddddkeke, PS)” the figure was 49%.

Regarding “AGCAGTGATGTCAGGT (sugars kkdddddddddkekek, PS)”, the target mRNA inhibition was 34% (MM.1R, 0.0625 µM); 54% (MM.1R, 0.25 µM); 66% and 67% and 64% (MM.1R, 1 µM); 79% (MM.1R, 4 µM).

In the case of CAAAACCAGTACAGTC (sugars k3 d10 k3, PS), the target mRNA inhibition (SK-MEL-28, 4 µM) amounted to 49%.

With TCCTCAAAGTCATTGC (sugars k4 d8 k4, PS), the target mRNA inhibition (SK-MEL-28, 4 µM) amounted to 10%. With TGGAAACCAGCCCTTG (sugars k3 d10 k3, PS), where the note is “SK-MEL-28, 4 µM”, the target mRNA inhibition is 48%. Regarding GATTCATTTCCTTCAC (sugars k3 d10 k3, PS), the target mRNA inhibition (SK-MEL-28, 4 µM) turned out to be 49%.

As for ATAACACGGTGTTGAC (sugars k3 d10 k3, PS), the target mRNA inhibition (MM.1R, 1 µM) worked out at 21%.

Consider GTGATAGCTGAGCTGA (sugars k3 d10 k3, PS), for which the target mRNA inhibition runs as follows: (H929, 0.04 µM) 51% and 42%; (KMS11, 0.2 µM) 77% and 89%; (MM.1R, 0.0625 µM) 13% and 17%; (MM.1R, 0.25 µM) 38% and 47%; (MM.1R, 1 µM) 70% and 75%; (MM.1R, 4 µM) 89% and 88%. As for CGCAAAACCCCTCAAG (sugars k3 d10 k3, PS), the target mRNA inhibition (SK-MEL-28, 4 µM) amounted to 19%. On to GGGCAGTCAATTGGAC (sugars k3 d10 k3, PS), for which the target mRNA inhibition (SK-MEL-28, 4 µM) came to 25%. Take TCCACTACCATATTGG (sugars k3 d10 k3, PS): where the note is “MM.1R, 1 µM”, the target mRNA inhibition is -29%. Turning to GCTCAACCAGTTCCTC (sugars k3 d10 k3, PS), the target mRNA inhibition (SK-MEL-28, 4 µM) is 38%.

For the sequence TGTTTTAAGAGGCGAC (sugars k3 d10 k3, PS), the target mRNA inhibition (MM.1R, 1 µM) amounted to 3%.

With TATCATCCGAAAAGAC (sugars k3 d10 k3, PS), the target mRNA inhibition (MM.1R, 1 µM) came out at 3%. Regarding CGTATGTCCATGGGAG (sugars k3 d10 k3, PS), the target mRNA inhibition (SK-MEL-28, 4 µM) came to 88%. Still for that read-out and setting: the same measure for AGGTAAAGGCACATTC (sugars k3 d10 k3, PS): 19%.

For the sequence TCGGAACTTTCCTTTA (sugars k3 d10 k3, PS), the target mRNA inhibition (SK-MEL-28, 4 µM) was 33%. Consider TCGCATAGAGCCCGTC (sugars k3 d10 k3, PS), for which, where the note is “SK-MEL-28, 4 µM”, the target mRNA inhibition was 57%. As for ACCCACGGACGGAGGC (sugars k3 d10 k3, PS), the target mRNA inhibition (SK-MEL-28, 4 µM) was -9%. As to ACGACAGCATAGCATT (sugars k3 d10 k3, PS), the target mRNA inhibition (SK-MEL-28, 4 µM) stood at 67%. CAGGCGGACACGCCCG (sugars k3 d10 k3, PS): the target mRNA inhibition (MM.1R, 1 µM) was -5%. Consider ACGGAGGCGGCAGACG (sugars k3 d10 k3, PS), for which the target mRNA inhibition (MM.1R, 1 µM) is -9%. Turning to GATAATATACCCCAAA (sugars k3 d10 k3, PS), the target mRNA inhibition (SK-MEL-28, 4 µM) was found to be 33%. Regarding GGAGGAGGGTTGGCCT (sugars k3 d10 k3, PS), the target mRNA inhibition (SK-MEL-28, 4 µM) is 1%.

As for “ATGTTAGCCAATTCCT (sugars kddddddddddkekek, PS)”, under “MM.1R, 1 µM”, the target mRNA inhibition was 0% and 7%. Turning to “CTCTATAGTGTTCCAG (sugars kkddddddddddkeke, PS)”, the target mRNA inhibition (MM.1R, 1 µM) came out at 27%.
